Test results published in PubChem BioAssay (NCI).
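Abbreviation: GI50, concentration required for 50% inhibition of growth. Definition used: TGI = concentration required for complete inhibition of growth.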

Experiments:
Assay in all cases: growth of human tumour cells (NCI), 384-well format
SW-620 colon = tested on: SW-620 colon
CAKI-1 renal = tested on: CAKI-1 renal
U251 glioblastoma = tested on: U251 glioblastoma
DU-145 prostate = tested on: DU-145 prostate
CCRF-CEM leukemia = tested on: CCRF-CEM leukemia
MDA-MB-231 breast = tested on: MDA-MB-231 breast
SF-539 CNS = tested on: SF-539 CNS
OVCAR-8 ovarian = tested on: OVCAR-8 ovarian
EKVX NSCLC = tested on: EKVX NSCLC
SF-295 CNS = tested on: SF-295 CNS
RXF 393 renal = tested on: RXF 393 renal
A549 NSCLC = tested on: A549 NSCLC
LOX IMVI melanoma = tested on: LOX IMVI melanoma

| SMILES | GI50 (SW-620 colon) [µM] | TGI (SW-620 colon) [µM] | GI50 (CAKI-1 renal) [µM] | TGI (CAKI-1 renal) [µM] | GI50 (U251 glioblastoma) [µM] | TGI (U251 glioblastoma) [µM] | GI50 (DU-145 prostate) [µM] | TGI (DU-145 prostate) [µM] | GI50 (CCRF-CEM leukemia) [µM] | TGI (CCRF-CEM leukemia) [µM] | GI50 (MDA-MB-231 breast) [µM] | TGI (MDA-MB-231 breast) [µM] | GI50 (SF-539 CNS) [µM] | TGI (SF-539 CNS) [µM] | GI50 (OVCAR-8 ovarian) [µM] | TGI (OVCAR-8 ovarian) [µM] | GI50 (EKVX NSCLC) [µM] | TGI (EKVX NSCLC) [µM] | GI50 (SF-295 CNS) [µM] | TGI (SF-295 CNS) [µM] | other results |
| --- | --- | --- | --- | --- | --- | --- | --- | --- | --- | --- | --- | --- | --- | --- | --- | --- | --- | --- | --- | --- | --- |
| Cc1ccc(-c2nc(N)nc3c2nnn3Cc2cccc(CO[C@H]3CCOC3)n2)o1 | > 100 | > 100 | > 100 | > 100 | > 100 | > 100 | > 100 | > 100 | 72 | > 100 | 88.2 | > 100 | > 100 | > 100 | > 100 | > 100 | > 100 | > 100 | > 100 | > 100 | GI50 (RXF 393 renal): 97.4 µM; TGI (RXF 393 renal): > 100 µM; GI50 (A549 NSCLC): > 100 µM; TGI (A549 NSCLC): > 100 µM; GI50 (LOX IMVI melanoma): > 100 µM; TGI (LOX IMVI melanoma): > 100 µM |
| Cc1cc(-c2nnc(N)nc2-c2ccc(F)cc2)cc(Cl)n1 | > 81.1 | > 100 | > 91.5 | > 100 | > 75.5 | > 100 | > 100 | > 100 | 48.3 | > 100 | > 85.7 | > 100 | > 100 | > 100 | > 92.6 | > 100 | 52.9 | > 100 | > 84.4 | > 100 | GI50 (RXF 393 renal): 28.5 µM; TGI (RXF 393 renal): > 100 µM; GI50 (A549 NSCLC): > 100 µM; TGI (A549 NSCLC): > 100 µM; GI50 (LOX IMVI melanoma): > 100 µM; TGI (LOX IMVI melanoma): > 100 µM |
